Assay results: the CheMixHub viscosity set

Assay: xn = mol fraction of the nth substance listed

C1=C[C@H]2[C@@H](C1)[C@H]1C=C[C@@H]2C1 + Cc1ccccc1
viscosity [mPa·s], 101.2 kPa
Conditions	x1 = 0.1024	x1 = 0.2018	x1 = 0.3008	x1 = 0.4006	x1 = 0.4997	x1 = 0.606	x1 = 0.7014	x1 = 0.7987	x1 = 0.8991
293.15 K	0.6849	0.7905	0.9144	1.08	1.279	1.57	1.948	2.495	3.305
298.15 K	0.6448	0.7387	0.8543	1.001	1.174	1.44	1.758	2.24	2.96
303.15 K	0.6068	0.69	0.7952	0.9255	1.083	1.313	1.602	2.024	2.665
308.15 K	0.5742	0.6559	0.7533	0.8681	1.019	1.222	1.486	1.875	2.43
313.15 K	0.5451	0.6205	0.7071	0.8118	0.9488	1.135	1.375	1.718	2.208
318.15 K	0.5187	0.5889	0.6667	0.76	0.8866	1.062	1.283	1.58	2.012

COC(=O)CC(=O)OC + ClC(Cl)(Cl)Cl
303.15 K, 101 kPa
Conditions	viscosity [mPa·s]
x1 = 0.0856	0.9503
x1 = 0.1747	1.064
x1 = 0.2659	1.186
x1 = 0.3608	1.295
x1 = 0.4586	1.409
x1 = 0.5599	1.52
x1 = 0.6641	1.601
x1 = 0.7723	1.687
x1 = 0.8841	1.753

COc1ccccc1O + CS(C)=O
viscosity [mPa·s], 101 kPa
Conditions	x2 = 0.2	x2 = 0.3	x2 = 0.4	x2 = 0.5	x2 = 0.6	x2 = 0.7	x2 = 0.8	x2 = 0.9
298.15 K	10.62	12.4	11.9	9.46	6.91	4.97	3.59	2.66
308.15 K	6.47	7.54	7.38	6.23	4.81	3.67	2.83	2.12
318.15 K	4.35	5.01	4.98	4.4	3.59	2.8	2.2	1.75
